Laboratory results published in BindingDB's records for doi:10.1016/j.bmc.2009.07.047 (4Sc, 2009).

assay: Inhibition of Aurora-B in human HCT116 cells by FACS-based endoreduplication assay

SMILES | EC50
COc1cc2c(Nc3ccc(-c4nc5ccccc5s4)c(Cl)c3)ncnc2cc1OCCCN1CCN(C)CC1 [N-(4-(benzo[d]thiazol-2-yl)-3-chlorophenyl)-6-methoxy-7-(3-(4-methylpiperazin-1-yl)propoxy)quinazolin-4-amine] | > 10 µM
COc1cc2c(Nc3ccc(-c4nc5ccccc5s4)c(F)c3)ncnc2cc1OCCCN1CCN(C)CC1 [N-(4-(benzo[d]thiazol-2-yl)-3-fluorophenyl)-6-methoxy-7-(3-(4-methylpiperazin-1-yl)propoxy)quinazolin-4-amine] | > 10 µM
COc1cc2c(Nc3ccc(-c4nc5cc(Cl)ccc5s4)cc3)ncnc2cc1OCCCN1CCN(C)CC1 [N-[4-(6''-Chlorobenzo[d]thiazol-2''-yl)phenyl]-6'-methoxy-7'-[3-(4-methylpiperazin-1-yl)propoxy]quinazolin-4'-amine] | > 10 µM

More lines, now with the values ahead:

EC50 | SMILES
> 10 µM | COc1cc2c(Oc3ccc(-c4nc5ccccc5s4)cc3)ncnc2cc1OCCCN1CCN(C)CC1 [2-(4-(6-methoxy-7-(3-(4-methylpiperazin-1-yl)propoxy)quinazolin-4-yloxy)phenyl)benzo[d]thiazole]
> 10 µM | COc1cc2c(Oc3ccc(-c4nc5ccccc5s4)cc3)ncnc2cc1OCCCN1CCCC1 [2-(4-(6-methoxy-7-(3-(pyrrolidin-1-yl)propoxy)quinazolin-4-yloxy)phenyl)benzo[d]thiazole]
